The text below walks through data of patent publication US8431596B2 (Cancer Research Technology Limited, priority 2007, dated 2013).

For this assay, the target named is T1, AXL (human catalytic domain) (Homo sapiens, UniProt P30530).
T1 construct: purchased Upstate Ltd. 14-512
T1 sequence (P30530 473-894): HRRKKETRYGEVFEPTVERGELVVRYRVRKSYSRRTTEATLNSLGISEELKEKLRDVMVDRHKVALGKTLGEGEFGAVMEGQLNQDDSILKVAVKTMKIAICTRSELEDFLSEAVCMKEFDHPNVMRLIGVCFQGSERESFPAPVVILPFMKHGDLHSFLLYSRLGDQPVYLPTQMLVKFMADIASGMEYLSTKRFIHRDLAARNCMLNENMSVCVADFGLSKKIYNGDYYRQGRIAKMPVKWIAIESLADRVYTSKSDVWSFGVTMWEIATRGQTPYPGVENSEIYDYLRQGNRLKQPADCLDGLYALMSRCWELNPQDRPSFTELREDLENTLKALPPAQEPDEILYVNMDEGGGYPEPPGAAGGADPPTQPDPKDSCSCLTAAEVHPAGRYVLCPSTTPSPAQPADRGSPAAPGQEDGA
The experiment in a line: AXL (human catalytic domain) Enzyme Activity Assay (IMAP fluorescence polarisation). The assay is classed as biochemical. The method, then:
Biological Methods AXL (human catalytic domain) Enzyme Activity Assay Reagents
Kinase Assay Reaction Buffer: This consisted of 20 mM HEPES pH 7.0, 10 mM MgCl2, 1 mM DTT, […], 0.01% Triton X100 (v/v), and 0.01% BSA (w/v). All buffer components were purchased from Sigma-Aldrich at reagent grade or higher.
Kinase: Recombinant AXL isoform 1 (aa473-894 corresponding to Genbank Accession Number NP 068713) at 2 mg/mL (20.8 μM) was purchased from Upstate Ltd. (Product code 14-512, lot #28164U). The enzyme was stored at −80° C. and a working stock was prepared to a concentration of 30 nM by diluting 20.8 μM stock 1:693 in cold (4° C.) 1× Reaction Buffer. Final enzyme concentration in the assay was 15 nM.
Substrate: Fluorescein labelled CSK-tide 5FAM-[…]-NH2 was obtained from Molecular Devices (Product code R7270) and used at a working concentration of 200 nM by diluting the 100 μM stock 1:500 in 1× Reaction Buffer in a mix with the enzyme. A negative control (lacking enzyme) was prepared at the same concentrations. Final substrate concentration in the assay was 100 nM.
ATP: Supplied by Sigma (product code A-7699). A 100 mM ATP stock was prepared in […] and used at a working concentration of 375 μM by diluting the 100 mM stock 1:266.6 in Reaction Buffer. Final ATP concentration in the assay was 150 μM; this concentration represents the KM.ATP for this enzyme calculated in this assay.
IMAP Reagents: IMAP screening express kit was obtained from Molecular Devices (product code R8127). The binding reagent was gently re-suspended before diluting by 1:1000 in buffer (Binding Buffer is supplied as a 5× stock and so was diluted with water prior to use—this assay used 40% buffer A and 60% buffer B) and then vortexed before addition to wells. The binding reagent was used at a final dilution of 1:1333.
1 μL samples of test compounds in 10% DMSO/water were added to “test” wells by dry-spotting using a Matrix Platemate Plus. 5 μL Kinase/Substrate in Reaction Buffer were added to columns 1-22 of a Corning black low binding 384 well #6754 (90 μL volume) microplate to give 12 nM and 100 nM reaction concentration respectively. 5 μL substrate in Reaction Buffer was added to columns 23 and 24 to give 100 nM reaction concentration. 4 μL ATP in Reaction Buffer was added to all wells to give 150 μM reaction concentration. The reaction mixture was then incubated at room temperature for 60 minutes. The incubation period was followed by the addition of 20 μL IMAP Binding Reagent in Binding Buffer to all wells. The IMAP reaction detection was further incubated at room temperature overnight. The FP on a Tecan Ultra Plate reader was recorded as a single read at Ex485 Em535.
Percentage inhibition was calculated based on activity of the test sample minus the average values in the blank wells relative to the average values measured in control wells minus the average values in the blank wells.
IC50 values were calculated from 10 point dose sigmoid ‘dose-response’ curves using XIfit software (IDBS Inc, USA). Data were fitted to a 4 parameter logistic model/sigmoidal dose response defined by the following equation:
[formula] where: • A=fit minimum (locked to 0); • B=fit maximum (locked to 100); • C=fit midpoint (pre-fit to 1); and • D=slope at linear portion of curve, hillslope (pre-fit to 0.1).
The value for C represents the IC50 of the test compound.

Where [1] appears, read: further data set (WW-001 through WW-169, XX-001 through XX-469, YY-001 through YY-016, ZZ-001 through ZZ-003), 150 μM ATP.
[2] abbreviates: first data set, recombinant AXL isoform 1 aa473-894, 150 μM ATP.

Values joined by “and” are separate entries in the source; they are usually repeats but may differ in a detail not shown here. Equal entries are not always repeated. Where only a bound is given, the exact number is not on record here.

For orientation: IC50 means the concentration that gives 50% inhibition. Under setting [1], `COc1cccc(CS(=O)(=O)n2cc(-c3cccc4nc(Nc5ccc(OCCN6CCCC6)cc5)nn34)cn2)c1` [XX-289] showed an IC50 of 0.1 to 1 µM.
Still for that read-out and setting: to `O=C(c1cccc(-c2cccc3nc(Nc4ccc(OCCN5CCCC5)cc4)nn23)c1)c1ccc2c(c1)OCO2` [XX-310, Benzo[1,3]dioxol-5-yl-(3-{2-[4-(2-pyrrolidin-1-yl-ethoxy)-phenylamino]-[1,2,4]triazolo[1,5-a]pyridin-5-yl}-phenyl)-methanone] belongs 0.1 to 1 µM; to `Clc1ccccc1COc1cccc(-c2cccc3nc(Nc4ccc(OCCN5CCCC5)cc4)nn23)c1` [XX-339], 1 to 10 µM; to `c1cc(-c2cnn(CCSc3nccs3)c2)n2nc(Nc3ccc(OCCN4CCCC4)cc3)nc2c1` [XX-425], 0.1 to 1 µM.
`C[C@@H](N)COc1ccc(Nc2nc3cccc(-c4ccc5c(c4)OCCO5)n3n2)cc1` [XX-138]: the IC50 under setting [1] was in the range of 0.1 to 1 µM.
Under setting [1], `COc1ccc(CNc2ccc(-c3cccc4nc(Nc5ccc(OCCN6CCCC6)cc5)nn34)cc2)cc1` [XX-266] had an IC50 of 0.1 to 1 µM.
Turning to `Cc1cc(-c2cccc3nc(NC(=O)C4CC4)nn23)cnc1F` [WW-088], the IC50 under setting [2] is 1 to 10 µM and the IC50 under setting [1] lay within 1 to 10 µM.
On to `O=C(Nc1nc2cccc(NCc3ccccn3)n2n1)C1CC1` [WW-075, Cyclopropanecarboxylic acid {5-[(pyridin-2-ylmethyl)-amino]-[1,2,4]triazolo[1,5-a]pyridin-2-yl}-amide], for which the IC50 lay within 1 to 10 µM under setting [2] and 1 to 10 µM under setting [1].
On to `COC(=O)c1ccc(-c2cccc3nc(NC(=O)C4CC4)nn23)cc1` [WW-070], for which the IC50 is, setting by setting: under setting [2], 1 to 10 µM; under setting [1], 1 to 10 µM.
For `COc1ccc(-c2nccc3nc(NC(=O)C4CC4)nn23)cc1` [ZZ-003], the IC50 under setting [1] is 1 to 10 µM.
`c1cc(-c2cnn(CC3CC3)c2)n2nc(Nc3ccc(OCCN4CCCC4)cc3)nc2c1` [XX-316] came in with an IC50 under setting [1] of at most 0.1 µM.
Still for that read-out and setting: to `CCC(CC)Cn1cc(-c2cccc3nc(Nc4ccc(OCCN5CCCC5)cc4)nn23)cn1` [XX-319] belongs at most 0.1 µM.
`C[C@H](N)COc1ccc(Nc2nc3cccc(-c4ccc5c(c4)OCCO5)n3n2)cc1` [XX-143, [4-((S)-2-Amino-propoxy)-phenyl]-[5-(2,3-dihydro-benzo[1,4]dioxin-6-yl)-[1,2,4]triazolo[1,5-a]pyridin-2-yl]-amine] registered an IC50 under setting [1] of 0.1 to 1 µM.
Turning to `c1cc(-c2cnn(CC3CCCO3)c2)n2nc(Nc3ccc(OCCN4CCCC4)cc3)nc2c1` (stereo not shown) [XX-344], the IC50 under setting [1] is 0.1 to 1 µM.
Consider `CC(C)CCCn1cc(-c2cccc3nc(Nc4ccc(OCCN5CCCC5)cc4)nn23)cn1` [XX-345], for which, under setting [1], the IC50 lay within 0.1 to 1 µM.
Under setting [1], `CCCNC(=O)Cn1cc(-c2cccc3nc(Nc4ccc(OCCN5CCCC5)cc4)nn23)cn1` [XX-441] gave an IC50 of 0.1 to 1 µM.
With `NC(=O)Cn1cc(-c2cccc3nc(Nc4ccc(OCCN5CCCC5)cc4)nn23)cn1` [XX-342], the IC50 under setting [1] lay in the range of 1 to 10 µM.
In turn, `O=C(CSc1ccc(Nc2nc3cccc(-c4ccc5c(c4)OCCO5)n3n2)cc1)N1CCCC1` [XX-160] showed an IC50 under setting [1] of 1 to 10 µM.
Turning to `Cc1ccc(-c2cccc3nc(NC(=O)C4CC4)nn23)cn1` [WW-084], the IC50 lay in the range of 1 to 10 µM under setting [2] and 1 to 10 µM under setting [1].
As for `Cc1cc(-c2cccc3nc(NC(=O)C4CC4)nn23)ccc1N(C)C` [WW-103], the IC50 is < 1 µM and 0.664 µM under setting [2]; 0.1 to 1 µM under setting [1].
As to `NCCNc1ccc(-c2cccc3nc(NC(=O)C4CC4)nn23)cc1` [WW-158, Cyclopropanecarboxylic acid {5-[4-(2-amino-ethylamino)-phenyl]-[1,2,4]triazolo[1,5-a]pyridin-2-yl}-amide], the IC50 reads like this: under setting [2], 1 to 10 µM; under setting [1], 1 to 10 µM.
`Cn1cncc1CNc1cccc(-c2cccc3nc(Nc4ccc(OCCN5CCCC5)cc4)nn23)c1` [XX-259] had a half-maximal inhibitory concentration (IC50) under setting [1] of 0.1 to 1 µM.
Turning to `C[C@H](CN(C)C)Oc1ccc(Nc2nc3cccc(-c4ccc5c(c4)OCCO5)n3n2)cc1` [XX-155], under setting [1], the IC50 lay within 0.1 to 1 µM.
As for `CN(C)CCNC(=O)c1cccc(Nc2nc3cccc(-c4ccc5occc5c4)n3n2)c1` [XX-085], the IC50 is, setting by setting: under setting [2], under 1 µM; under setting [1], at most 0.1 µM.
For the compound `O=C(Nc1nc2cccc(-c3ccc(O)cc3)n2n1)C1CC1` [WW-022, cyclopropanecarboxylic acid [5-(4-hydroxy-phenyl)-[1,2,4]triazolo[1,5-a]pyridin-2-yl]-amide], the IC50 under setting [2] was under 1 µM and the IC50 under setting [1] lay within 0.1 to 1 µM.
Take `c1ccc2sc(-c3cccc4nc(Nc5ccc(OCCN6CCCC6)cc5)nn34)cc2c1` [XX-294]: under setting [1], the IC50 is 0.1 to 1 µM.
The same measure, in the same setting: to `O=C(Cn1cc(-c2cccc3nc(Nc4ccc(OCCN5CCCC5)cc4)nn23)cn1)Nc1cccc(Cl)c1` [XX-435] belongs 0.1 to 1 µM; to `CCn1cc(-c2cccc3nc(Nc4ccc(OCCN5CCCC5)cc4)nn23)cn1` [XX-315], 0.1 to 1 µM.
Compound `c1cc(NC2CCCC2)n2nc(Nc3ccc(OCCN4CCCC4)cc3)nc2c1` [XX-152, N*5*-Cyclopentyl-N*2*-[4-(2-pyrrolidin-1-yl-ethoxy)-phenyl]-[1,2,4]triazolo[1,5-a]pyridine-2,5-diamine] had an IC50 under setting [1] of 1 to 10 µM.
For `Clc1ccc(-c2cccc3nc(Nc4ccc(OCCN5CCCC5)cc4)nn23)cc1` [XX-211], the IC50 under setting [1] is at most 0.1 µM.
Same read-out and setting: to `CCN(CC)CCOc1c(C)cc(Nc2nc3cccc(-c4ccc(OC)cc4)n3n2)cc1C` [XX-416] belongs at most 0.1 µM.
For `CC(Oc1ccc(Nc2nc3cccc(-c4ccc5c(c4)OCCO5)n3n2)cc1)C(N)=O` (stereo not shown) [XX-072], the IC50 is, setting by setting: under setting [2], under 1 µM; under setting [1], 0.1 to 1 µM.
As to `C#CCOc1ccc(-c2cccc3nc(Nc4ccc(OCCN5CCCC5)cc4)nn23)cc1` [XX-148], the IC50 under setting [1] is 0.1 to 1 µM.
Turning to `CN(C)c1ccc(-c2cccc3nc(NC(=O)C4CC4)nn23)cc1` [WW-069], the IC50 under setting [2] was under 1 µM and the IC50 under setting [1] lay in the range of 0.1 to 1 µM.
Consider `COc1ccc(Nc2cccc3nc(NC(=O)C4CC4)nn23)cc1` [WW-127, Cyclopropanecarboxylic acid [5-(4-methoxy-phenylamino)-[1,2,4]triazolo[1,5-a]pyridin-2-yl]-amide], for which the IC50 lay in the range of 1 to 10 µM under setting [2] and 1 to 10 µM under setting [1].
Under setting [1], `CS(=O)(=O)Nc1ccc(-c2cccc3nc(Nc4ccc(OCCN5CCCC5)cc4)nn23)cc1` [XX-253] gave an IC50 of 0.1 to 1 µM.
Still for that read-out and setting: under `CCCn1cc(-c2cccc3nc(Nc4ccc(OCCN5CCCC5)cc4)nn23)cn1` [XX-318] stands at most 0.1 µM.
Regarding `CC(C)(C)CNc1cccc2nc(NC(=O)C3CC3)nn12` [WW-080], the IC50 under setting [2] is 1 to 10 µM and the IC50 under setting [1] was 1 to 10 µM.
For `CSc1ccc(-c2cccc3nc(NC(=O)C4CC4)nn23)cc1` [WW-136], the IC50 was in the range of 1 to 10 µM under setting [2] and 1 to 10 µM under setting [1].
Under setting [1], `c1cc(-c2ccc(Cn3cccn3)cc2)n2nc(Nc3ccc(OCCN4CCCC4)cc3)nc2c1` [XX-270] gave an IC50 of 0.1 to 1 µM.
For the compound `CCN(CC)CCOc1ccc(Nc2nc3cccc(-c4ccc(OC)cc4)n3n2)cc1Cl` [XX-417], the IC50 under setting [1] lay in the range of 0.1 to 1 µM.
For the compound `Cn1nc(COc2cccc(-c3cccc4nc(Nc5ccc(OCCN6CCCC6)cc5)nn34)c2)c2ccccc21` [XX-407], under setting [1], the IC50 was 0.1 to 1 µM.
